According to PubChem BioAssay AID489033 (Sanford-Burnham Center for Chemical Genomics, 2010):
Activity calls are given as the source filed them. How the calls were made is not given here.

System: 697B B-cell line, NF-kB luciferase reporter luminescence
Assay: NF-kB reporter inhibition in B cells, dose response, selectivity assay for T-cell antigen receptor NF-kB inhibitors, 697B cells, luminescence (AID 489033)

With `CC1=Nc2ccccc2/C1=C\c1sc(Nc2ccc(C)cc2)nc1O` the IC50 was 61 µM (inactive).

For `COc1ccc(CCNc2cc(N3CCN(C(=O)c4ccccc4F)CC3)ccc2[N+](=O)[O-])cc1OC`, the IC50 was > 80 µM (inactive).

For `CC(=O)c1sc2c(c1OC(=O)c1ccc(Cl)cc1Cl)c(=O)n(-c1ccccc1)c(=S)n2-c1ccccc1`, the IC50 was 1.93 µM.

`Cc1ccc(-c2cc(-c3ccc(C)cc3)[n+](-c3ccccc3)c(-c3ccc(C)cc3)c2)cc1` was tested, and the IC50 was 0.7 µM.

In the case of `CC1(C)Cc2nc3sc4c(=O)n(CC(=O)NCc5ccccc5)cnc4c3cc2CO1`, the IC50 is reported as > 80 µM (inactive).

`O=S(=O)(C/C(=C/CO)S(=O)(=O)c1ccccc1)c1ccccc1` showed an IC50 of 0.28 µM.

With `O=C(COc1ccc2c(-c3ccccc3)cc(=O)oc2c1)Nc1cccnc1` the IC50 was > 80 µM (inactive).

For `COc1ccc(NS(=O)(=O)c2ccc(-c3cnc(C4CC4)o3)cc2)cc1OC`, the IC50 was > 80 µM (inactive).

With `Cc1ccc(C(=O)c2cc([N+](=O)[O-])ccc2N2CCOCC2)c(C)c1` the IC50 was > 80 µM (inactive).

`Cc1ccc(C[n+]2c(-c3ccc(C)cc3)cc(-c3ccc(C)cc3)cc2-c2ccc(C)cc2)cc1` gave an IC50 of 0.29 µM.

Molecule `COc1cccc(/C=N/Nc2ccc(C(=O)O)cc2)c1O` has an IC50 of 0.83 µM.

`COc1ccc2c(c1)/C(=C/c1cnc[nH]1)C(=O)N2` gave an IC50 of 4.8 µM.

In the case of `Cc1ccc(NS(=O)(=O)c2ccc(-c3cnc(C4CC4)o3)cc2)c(C)c1`, the IC50 is reported as > 80 µM (inactive).

`COc1cc(-c2noc(C)c2-c2ccc(N(C)C)nc2)cc(OC)c1OC` was tested, and the IC50 was > 80 µM (inactive).

In the case of `Cc1ccc(NC(=O)C2=C(c3ccccc3)S(=O)(=O)CCS2(=O)=O)cc1`, the IC50 is reported as 0.39 µM.

`Cc1ccnc2c1ccc1c(C)ccnc12` gave an IC50 of 10.1 µM.

With `Cc1ccc(S(=O)(=O)Nc2cccc(-c3ccc4nncn4n3)c2)cc1` the IC50 was > 80 µM (inactive).

In the case of `COC(=O)c1ccccc1NC(=O)CSc1nc(-c2ccco2)cc(C(F)(F)F)n1`, the IC50 is reported as > 80 µM (inactive).

In the case of `Cc1noc(C)c1COc1cccc(C(=O)OCC(=O)N2CC(=O)Nc3ccccc32)c1`, the IC50 is reported as > 80 µM (inactive).

`CCN(CC)c1ccc(-c2nn3c(-c4n[nH]c5c4CCC5)nnc3s2)cc1` was tested, and the IC50 was > 80 µM (inactive).

For `O=C(Nc1ccc(S(=O)(=O)N2CCCCC2)cc1)c1ccc(CN2CCOCC2)cc1`, the IC50 was 51.2 µM (inactive).

In the case of `CCOc1ccccc1NC(=O)Cn1nnc(C(=O)NCc2cccs2)c1N`, the IC50 is reported as > 80 µM (inactive).

With `COc1ccc(/C=N/NC(=O)COc2ccccc2-c2ccccc2)cc1` the IC50 was 76.2 µM (inactive).

`Cc1ccc(C(=O)O/N=C(\N)c2ccccn2)c(C)c1` was tested, and the IC50 was 0.85 µM.

With `COc1ccccc1C(=O)Nc1nc2ccccc2s1` the IC50 was 0.53 µM.

In the case of `COc1cc(/C=C/C(=O)c2ccc([N+](=O)[O-])o2)ccc1O`, the IC50 is reported as 14.5 µM.

For `c1cc2c(cc1C1=NNC(=NC3CC3)SC1)OCCO2`, the IC50 was 0.3 µM.

Work on `CCCCN=C[C@]12CCC(O)CC1(O)CCC1[C@@H]2CC[C@]2(C)[C@H](C3C=CC(=O)O3)CCC12O` (some centres not stated) yielded an IC50 of 2.49 µM.

For `CCS(=O)(=O)c1ncc(Cl)c(C(=O)Nc2ccc(S(=O)(=O)N(C)c3ccccc3)cc2)n1`, the IC50 was 1.42 µM.

For `Cc1noc(C)c1CSc1nc2ccccc2c(=O)n1-c1ccccc1`, the IC50 was > 80 µM (inactive).

With `CCN(CC)S(=O)(=O)c1cc(NC(=O)CNc2cccc(S(=O)(=O)N3CCCC3)c2)ccc1C` the IC50 was > 80 µM (inactive).

`CCOc1cc(C(=O)N/N=C/C(Br)=C/c2ccccc2)cc(OCC)c1OCC` was tested, and the IC50 was 35.6 µM (inactive).

With `COC(=O)Nc1ccc(S(=O)(=O)N2c3ccccc3CCC2C)cc1` (configuration not stated) the IC50 was > 80 µM (inactive).

In the case of `CCOC(=O)C(C)Oc1cccc2c(=O)n(CC(=O)NCc3ccco3)ccc12` (configuration not stated), the IC50 is reported as > 80 µM (inactive).

In the case of `CCOC(=O)c1c(C)[nH]c(C(=O)N/N=C/c2ccc(Br)cc2)c1C`, the IC50 is reported as > 80 µM (inactive).

In the case of `Cc1ccc(N(C)S(=O)(=O)c2ccc(-c3cnc(C4CC4)o3)cc2)cc1`, the IC50 is reported as 67.6 µM (inactive).

In the case of `CN(C)c1ccc(-c2nn3c(-c4ccccc4Cl)nnc3s2)cc1`, the IC50 is reported as > 80 µM (inactive).

For `CC(C)CCOc1cccc(OCC(=O)Nc2ccncc2)c1`, the IC50 was > 80 µM (inactive).

With `COC(=O)c1ccccc1NC1=C/C(=N\S(=O)(=O)c2cccs2)c2ccccc2C1=O` the IC50 was 4.91 µM.

In the case of `CC(C)CC[n+]1ccccc1/C=C/c1ccc(N(C)C)cc1`, the IC50 is reported as > 80 µM (inactive).

With `CC(=O)c1c(C)[nH]c(C(=O)OCC(=O)Nc2ccc(C)cc2[N+](=O)[O-])c1C` the IC50 was 11.3 µM.

With `C=C(C)C(=O)O[C@H]1C/C(C)=C\C(=O)/C=C(\C)[C@H](O)[C@@H]2OC(=O)C(=C)[C@@H]21` the IC50 was 1.06 µM.

With `CC1CCN(c2c(NCc3ccc(C(=O)N4CCc5ccccc54)cc3)c(=O)c2=O)CC1` the IC50 was > 80 µM (inactive).

`COc1ccc(C2=NOC(C(=O)NCc3cccs3)C2)cc1OC` (configuration not stated) was tested, and the IC50 was > 80 µM (inactive).

With `COc1ccc(C)c(Cn2c(-c3nonc3N)nc3ccccc32)c1` the IC50 was > 80 µM (inactive).

`Oc1ccc2ccccc2c1N=Nc1ccccn1` gave an IC50 of 3.22 µM.

With `Cc1c(C(=O)OC2CCCC2)[nH]c2c1C(=O)CC(c1ccco1)C2` (configuration not stated) the IC50 was > 80 µM (inactive).

In the case of `CCOc1ccccc1NC(=O)CN(c1ccc(OC)cc1)S(=O)(=O)c1c(C)noc1C`, the IC50 is reported as > 80 µM (inactive).

Molecule `c1ccc(-c2noc(-c3ccc4ccccc4c3)n2)nc1` has an IC50 of 0.73 µM.

`COc1cc(-c2noc(C)c2/C=C/c2cccc([N+](=O)[O-])c2)cc(OC)c1OC` was tested, and the IC50 was > 80 µM (inactive).

For `CCOc1ccc(Br)cc1C1=CC(=O)C[C@H](c2ccc(OC)cc2)C1`, the IC50 was > 80 µM (inactive).

Molecule `COC(=O)[C@]12OC[C@]34C([C@@H](O)[C@@H]1O)[C@]1(C)CC(=O)C(O)=C(C)[C@@H]1C[C@H]3OC(=O)[C@H](O)[C@@H]24` (some centres not stated) has an IC50 of 0.23 µM.

For `C=C1C(=O)O[C@H]2C[C@@H](C)[C@@H]3C=CC(=O)[C@@]3(C)C[C@H]12`, the IC50 was 1.25 µM.

For `Cc1ccc(Nc2nc(-c3c(C)nc4ccccn34)cs2)cc1`, the IC50 was > 80 µM (inactive).

In the case of `O=C1/C(=C/c2ccc(N3CCOCC3)o2)SC(=Nc2ccccc2)N1CCc1c[nH]c2ccccc12`, the IC50 is reported as 12.8 µM.

In the case of `COc1ccccc1NC(=O)C1=C(C)Nc2nc3ccccc3n2C1c1cccs1` (configuration not stated), the IC50 is reported as > 80 µM (inactive).

In the case of `CC(C)(C)OC(=O)NCCCCCc1cn(CC(=O)NCCCCCCCCCCC(=O)N2CCN(C(=O)OC(C)(C)C)CC2)nn1`, the IC50 is reported as > 80 µM (inactive).

With `CCOc1ccc2c(c1)OC(c1ccc(C)cc1)(C(F)(F)F)NC2=O` (configuration not stated) the IC50 was > 80 µM (inactive).

`Cc1noc(C)c1COc1ccc(C(=O)NNC(=O)c2ccccc2F)cc1` was tested, and the IC50 was > 80 µM (inactive).

With `O=c1oc2ccccc2cc1-c1cn(-c2ccccc2)c(=S)[nH]1` the IC50 was 0.55 µM.

For `CCOc1ccccc1N1CC(O)=C(c2nc3ccccc3s2)C1=N`, the IC50 was 61 µM (inactive).

With `COc1cc(-c2c(-c3cc(OC)c(OC)c(OC)c3)noc2C)ccc1F` the IC50 was > 80 µM (inactive).

`Cc1ccc2[nH]c(-c3cccc(F)c3)cc(=O)c2c1` was tested, and the IC50 was > 80 µM (inactive).

With `COC(=O)c1c(NC(=O)c2ccc([N+](=O)[O-])o2)sc2c1CCN(C(C)C)C2` the IC50 was 15 µM.

In the case of `CCOC(=O)c1ccc(Nc2nc(N)c3cc(OC)c(OC)cc3n2)cc1`, the IC50 is reported as > 80 µM (inactive).

Work on `COc1ccc(Cn2c(SCc3ccc(C)cc3)nc3cc(OC)c(OC)cc3c2=N)cc1Cl` yielded an IC50 of 4.8 µM.

In the case of `COc1ccc(/C=N\NC(=O)c2ccccc2F)cc1COc1ccc(F)cc1F`, the IC50 is reported as > 80 µM (inactive).

In the case of `CCO[C@@H]1OC(C(=O)NCc2nc3ccccc3[nH]2)=C[C@H](C(C)(C)C)[C@H]1CCCO`, the IC50 is reported as > 80 µM (inactive).

With `Cc1cccc(N2CCN(C(=O)c3ccc(S(=O)(=O)N(C)c4ccccc4)cc3)CC2)c1C` the IC50 was > 80 µM (inactive).

With `COc1ccccc1N1CCN(C(=O)c2cc(=O)c3cc(C)cc(C)c3o2)CC1` the IC50 was > 80 µM (inactive).

In the case of `CCC(=O)NC(c1cccs1)c1ccc2cccnc2c1O` (configuration not stated), the IC50 is reported as > 80 µM (inactive).

In the case of `COc1ccc(OC)c(-c2nnc3n2N=C(c2ccc(OC)c(OC4CCCC4)c2)CS3)c1`, the IC50 is reported as 35.3 µM (inactive).

With `CCN(CC)c1ccc(-c2nn3c(-c4ccccc4OC)nnc3s2)cc1` the IC50 was > 80 µM (inactive).

`COc1ccc(S(=O)(=O)/N=C2\C=C(Nc3ccc(O)cc3)C(=O)c3ccccc32)cc1` was tested, and the IC50 was 2.18 µM.

In the case of `COc1ccc(S(=O)(=O)Nc2cccc(-c3ccc4nncn4n3)c2)cc1F`, the IC50 is reported as > 80 µM (inactive).

Molecule `CCOc1cccc(/C=N/Nc2ccc(S(=O)(=O)N(CC)CC)cn2)c1O` has an IC50 of 11.3 µM.

For `CCCc1cc(C(=O)Nc2cc(C)ccc2O)no1`, the IC50 was > 80 µM (inactive).

For `CC(C)Nc1ccc(C(CC(N)=O)NC(=O)c2ccc(Br)cc2)cc1[N+](=O)[O-]` (configuration not stated), the IC50 was > 80 µM (inactive).

With `COC(=O)c1ccc(Oc2cc(C)nc(SC)n2)cc1` the IC50 was > 80 µM (inactive).

With `CCCC(=O)NC(c1ccc(C)cc1)c1ccc2cccnc2c1O` (configuration not stated) the IC50 was > 80 µM (inactive).

For `O=C(NCc1cccs1)C1CCN(c2ccc(S(=O)(=O)N3CCOCC3)cc2Cl)CC1`, the IC50 was > 80 µM (inactive).

`CCCCOc1ccccc1C1CC(=O)NC2=C1C(=O)CCC2` (configuration not stated) was tested, and the IC50 was > 80 µM (inactive).

With `COc1ccc(/C=C2/C(=O)OCc3cc(OC)c(OC)cc32)cc1` the IC50 was > 80 µM (inactive).

`Cc1ccc(-c2cc(C(F)F)n3ncc(C(=O)N4CCc5ccccc54)c3n2)cc1` was tested, and the IC50 was > 80 µM (inactive).

With `Cc1cccc(N2CCN(C(=O)c3c(-c4ccccc4)noc3C)CC2)c1C` the IC50 was > 80 µM (inactive).

`CC(=O)N1c2ccc(S(=O)(=O)N3CCC(C(=O)Nc4cccc(C)n4)CC3)cc2CC1C` (configuration not stated) gave an IC50 of 0.79 µM.

With `O=S(=O)(Nc1ccc(F)cc1Cl)c1ccc(-c2cnc(C3CC3)o2)cc1` the IC50 was 73.4 µM (inactive).

In the case of `O=C(c1ccccc1-c1ccccc1)N1CCN(c2ccccn2)CC1`, the IC50 is reported as > 80 µM (inactive).

`COc1cc(NS(=O)(=O)c2ccc(OC)c(C)c2C)c(OC)cc1Cl` was tested, and the IC50 was > 80 µM (inactive).

For `O=C(OCCN1C(=O)c2cccc3c(N4CCOCC4)ccc(c23)C1=O)c1ccc(Cl)cc1`, the IC50 was > 80 µM (inactive).

Molecule `CN(C)c1ccc(-[n+]2c(-c3ccccc3)cc(-c3ccccc3)cc2-c2ccccc2)cc1` has an IC50 of 0.79 µM.

With `CCOC(=O)c1ccccc1NS(=O)(=O)c1ccc(OCC)cc1` the IC50 was > 80 µM (inactive).

For `Cc1nc(SCC(=O)Nc2nc3ccccc3s2)c(C#N)c(C)c1C`, the IC50 was < 0.16 µM.

`CCCC(=O)Nc1nc2ccc(S(=O)(=O)N3CCCCC3)cc2s1` was tested, and the IC50 was > 80 µM (inactive).

Molecule `c1ccc(-c2noc(-c3ccc4c(c3)OCO4)n2)nc1` has an IC50 of 1.27 µM.

For `CN(C)c1ccc2c(c1)OC(N)=C(C#N)C2c1cccc(F)c1` (configuration not stated), the IC50 was > 80 µM (inactive).

For `CCc1ccc2nc(SCC(=O)Nc3ccccc3N3CCOCC3)c(C#N)cc2c1`, the IC50 was > 80 µM (inactive).
